Reference: patent publication US20050196795A1, “Methods for diagnosing and treating bladder cancer” (priority 2004, published 2005)

Key:
[1] = tested on: Human bladder HT-1376 cells; test: Caspase-3 activity in cell lysates of 48 h cultures (apoptosis); format: cell-based; conditions: ANOVA, Newman-Keuls, p<0.05
Description: The reduction in cell proliferation seen with MIF inhibitor treatment could possibly be due to induction of apoptosis. To assess this we determined caspase-3 activity within the cell lysates of 48 h cultures.

[2] = tested on: HT-1376 bladder epithelial cells; test: MIF protein synthesis and secretion (cellular and secreted MIF); format: cell-based, human; conditions: HT-1376 cells, in vitro treatment
Description: In order to establish the relevance of MIF to urogenital disease in humans we sought to determine if human bladder epithelial cells secrete MIF. Human bladder HT-1376 cells (ATCC, Manasas, Va.) were cultured for 48 hours and the culture medium was assayed for MIF using ELISA. In addition, intracellular content of MIF was assayed from cell lysates. These human bladder adenocarcinoma cells synthesize MIF ([…]). The average MIF concentration secreted into the medium by these cells was 15 ng/ml. Expression of MIF was confirmed by RT-PCR analysis. Thus establishing MIF secretion by human bladder epithelia.
Next, we determined if addition of MIF inhibitors in the culture media changed the synthesis or release of MIF by these cells.
A human MIF-specific “sandwich” ELISA technique was developed, based on the capture of MIF by immobilized monoclonal antibody (MAB289, R&D Systems) followed by detection with goat polyclonal anti-MIF affinity purified IgG (BAF289, R&D Systems). This assay was successfully used previously to detect MIF levels in serum and urine. This is another application of this protocol in which MIF levels are detected in urine for bladder cancer diagnosis and prognosis. Intravesical MIF inhibitors are a potential new treatment for bladder cancer. […]

HT-1376 cells = test: Cytokine protein array analysis of secreted cytokines; format: cell-based, human
Description: MIF plays a key role in pro-inflammatory gene and cytokine expression. Therefore changes in MIF expression or protein content are likely to affect the expression of additional cytokines. This may in fact be a key in the utility of MIF inhibition in treating bladder adenocarcinoma. To test this, cytokine expression changes induced by MIF inhibition were also evaluated by cytokine protein array analysis (Ray Biotech, Norcross, Ga.), which detected secreted cytokines. […] A summary of the cytokine secretion changes (2 fold or greater) seen with MIF inhibition is described in Table 1.
HT-1376 cells express and secrete 65 of the 79 cytokines present on the array. The three types of MIF inhibition all affected the cytokine secretion patterns of these cells. In table 1, blank cells indicate no difference between the amounts of cytokine secreted by the treated and control cells. Arrows indicate an increase or decrease in the fold amount of cytokine secreted. […] Healon decreased the secreted amount of 27 cytokines.

[3] = fold vs control, ↓ decrease ↑ increase, Not detected = no longer detectable after treatment

hyaluronan [Healon]
caspase-3 activity [1]: no significant increase
decrease in secreted (extracellular) MIF [2]: 2.8 fold
increase in cellular MIF content [2]: 2 fold
number of secreted cytokines whose amount was decreased (HT-1376 cells; 65 of the 79 cytokines on the array expressed): 27
Secreted Cytokines: Ang (HT-1376 cells; [3]): Not detected
Secreted Cytokines: Ckβ 8-1 (HT-1376 cells; [3]): Not detected
Secreted Cytokines: Eotaxin (HT-1376 cells; [3]): Not detected
Secreted Cytokines: Eotaxin-3 (HT-1376 cells; [3]): Not detected
Secreted Cytokines: IGF-1 (HT-1376 cells; [3]): Not detected
Secreted Cytokines: IL-1β (HT-1376 cells; [3]): no affect
Secreted Cytokines: MIF (HT-1376 cells; [3]): Not detected
Secreted Cytokines: MIP-3α (HT-1376 cells; [3]): Not detected
Secreted Cytokines: TNF-α (HT-1376 cells; [3]): Not detected
